Strand notation (5' to 3'): a small letter for the sugar, then the base; units joined by * are phosphorothioate-linked, units joined directly phosphodiester-linked; [ ] holds rarer units or linkages, { } end groups; capitals alone tell only the bases. e = 2'-O-(2-methoxyethyl) (MOE); [5mC] = 5-methylcytosine; d = 2'-deoxy (DNA)
The substances below were run on human PKK mRNA (assay: Antisense inhibition of human PKK mRNA in HepaRG cells, 5,000 nM (Example 2)). Conditions: HepaRG cells, 5,000 nM antisense oligonucleotide; 5-10-5 gapmers; Table 16.
Format: cell-based
Outline: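 Chimeric MOE gapmers with full phosphorothioate backbones were tested once at 5,000 nM in electroporated HepaRG cells. After about 24 hours, quantitative PCR measured PKK mRNA relative to untreated control cells.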

Substance | % inhibition
547709 (antisense eA*eG*e[5mC]*e[5mC]*e[5mC]*dA*dA*dT*dG*dT*d[5mC]*d[5mC]*dT*dA*dA*e[5mC]*e[5mC]*eT*eG*eT) [compound 547709] | 76%
547685 (antisense eA*eT*eA*eA*e[5mC]*dT*dA*dT*dA*dT*d[5mC]*dA*d[5mC]*dT*dG*eT*e[5mC]*e[5mC]*eT*eA) [compound 547685] | 35%

Same assay, conditions: HepaRG cells, electroporation with 5,000 nM antisense oligonucleotide, approximately 24 hours, PKK mRNA by RT-PCR (RTS3454), relative to untreated control cells; Table 5 experiment

Substance | % inhibition
547299 (antisense eA*eA*eA*e[5mC]*eT*dG*dA*dA*dT*dA*dG*d[5mC]*dA*dA*dA*e[5mC]*eA*e[5mC]*e[5mC]*eT) [compound 547299] | 76%
546144 (e[5mC]*eA*e[5mC]*eA*eG*dG*dA*dA*dA*d[5mC]*dT*dG*dT*dA*dG*e[5mC]*eA*eA*eA*e[5mC]; antisense) [compound 546144] | 75%

Same assay, conditions: HepaRG cells, electroporation with 5,000 nM antisense oligonucleotide, approximately 24 hours, PKK mRNA by RT-PCR (RTS3454), relative to untreated control cells; Table 6 experiment

Substance | % inhibition
547351 (antisense eT*eT*eT*eG*eG*d[5mC]*dA*dT*dT*d[5mC]*dT*dT*d[5mC]*dA*dA*e[5mC]*eA*e[5mC]*eT*eG) [compound 547351] | 92%

Same assay, conditions: HepaRG cells, electroporation, 5,000 nM antisense oligonucleotide, approx. 24 hours, primer probe set RTS3454, relative to untreated control cells; Table 11

Substance | % inhibition
546384 (antisense e[5mC]*eG*eT*e[5mC]*e[5mC]*dT*dT*dA*dG*dG*dA*dT*dG*d[5mC]*dA*eA*eA*eG*eA*eA) [compound 546384] | 81%
547498 (antisense e[5mC]*eT*eG*eG*eA*d[5mC]*dT*dG*d[5mC]*dT*dT*d[5mC]*dT*d[5mC]*dA*eT*eG*e[5mC]*eT*eG) [compound 547498] | 44%
547503 (antisense eA*e[5mC]*eT*e[5mC]*eA*dG*dG*dT*dT*dG*dT*dA*dA*dA*dA*eA*eT*eT*eG*e[5mC]) [compound 547503] | 66%
547492 (antisense e[5mC]*eA*eG*eT*e[5mC]*d[5mC]*dA*dT*dG*dT*dA*d[5mC]*dT*d[5mC]*dA*eG*e[5mC]*eG*eA*e[5mC]) [compound 547492] | 62%

Same assay, conditions: HepaRG cells, electroporation, 5,000 nM antisense oligonucleotide, approx. 24 hours, primer probe set RTS3454, relative to untreated control cells; Table 12

Substance | % inhibition
546416 (e[5mC]*eT*eG*e[5mC]*eA*dG*dG*d[5mC]*dA*dA*dT*dA*dT*dT*dT*eT*eG*e[5mC]*eT*eT; antisense) [compound 546416] | 62%
547542 (antisense eA*eT*eA*e[5mC]*eT*d[5mC]*dG*d[5mC]*d[5mC]*dT*dT*dT*dG*dT*dG*eA*e[5mC]*eT*e[5mC]*eG) [compound 547542] | 35%
547550 (antisense e[5mC]*e[5mC]*e[5mC]*e[5mC]*eA*dT*dG*d[5mC]*dA*dT*dA*d[5mC]*dT*d[5mC]*dG*e[5mC]*e[5mC]*eT*eT*eT) [compound 547550] | 53%
546450 (eG*eT*eG*eG*e[5mC]*d[5mC]*d[5mC]*dT*d[5mC]*dT*dT*dA*dA*dG*dT*e[5mC]*eA*e[5mC]*e[5mC]*eA; antisense) [compound 546450] | 73%

Same assay, conditions: Table 7; HepaRG cells, electroporation with 5,000 nM antisense oligonucleotide, approx. 24 hours; PKK mRNA by RT-PCR (RTS3454), relative to untreated control cells

Substance | % inhibition
547391 (eA*eT*eA*eT*e[5mC]*d[5mC]*dA*dG*dA*dT*dA*dT*dG*dG*dT*eG*eT*eT*eT*eT; antisense) [compound 547391] | 32%
547377 (e[5mC]*eA*eT*eT*eT*dG*dT*dA*dT*dA*dG*dA*dA*dT*dG*eT*eA*eA*eA*eG; antisense) [compound 547377] | 6%
547406 (e[5mC]*eT*e[5mC]*e[5mC]*eT*d[5mC]*d[5mC]*dA*dA*dA*dG*dT*d[5mC]*dA*dA*e[5mC]*eT*e[5mC]*e[5mC]*e[5mC]; antisense) [compound 547406] | 81%
547401 (eG*eA*eA*eT*eG*dG*d[5mC]*dA*dG*dG*dG*dT*dT*d[5mC]*dA*eG*eG*eT*eA*eA; antisense) [compound 547401] | 22%
547376 (eG*eA*eA*eT*eG*dT*dA*dA*dA*dG*dA*dA*dG*dA*dG*eG*e[5mC]*eA*eG*eT; antisense) [compound 547376] | 43%
547409 (eA*eG*eT*e[5mC]*eA*d[5mC]*dA*dT*dT*d[5mC]*dA*dA*dT*dT*d[5mC]*eT*eT*e[5mC]*eT*e[5mC]; antisense) [compound 547409] | 67%
547371 (eA*eT*eG*eG*eT*d[5mC]*d[5mC]*dG*dA*d[5mC]*dA*d[5mC]*dA*d[5mC]*dA*eA*eA*eA*eG*e[5mC]; antisense) [compound 547371] | 66%

Same assay, conditions: Table 8; HepaRG cells, electroporation with 5,000 nM antisense oligonucleotide, approx. 24 hours; PKK mRNA by RT-PCR (RTS3454), relative to untreated control cells

Substance | % inhibition
546283 (antisense eT*e[5mC]*eT*e[5mC]*eA*dA*dA*dG*dA*dG*dT*dA*dA*d[5mC]*d[5mC]*eA*eG*eA*eG*e[5mC]) [compound 546283] | 88%
546260 (eG*eA*eA*eA*eA*dA*d[5mC]*dT*dG*dA*d[5mC]*dA*dG*d[5mC]*dG*eA*eA*eT*e[5mC]*eA; antisense) [compound 546260] | 84%

Same assay, conditions: Table 9 experiment; HepaRG cells, 20,000 cells per well, electroporation with 5,000 nM antisense oligonucleotide, approx. 24 hours; PKK mRNA by RT-PCR (RTS3454), relative to untreated control cells

Substance | % inhibition
547461 (antisense eG*eT*eA*eA*eT*dT*d[5mC]*dA*dA*dA*dG*dG*dA*dG*d[5mC]*e[5mC]*eT*eG*eG*eA) [compound 547461] | 49%
546329 (antisense e[5mC]*e[5mC]*eT*eT*e[5mC]*dG*dA*dG*dA*dA*dG*d[5mC]*d[5mC]*d[5mC]*d[5mC]*eA*eT*e[5mC]*e[5mC]*eG) [compound 546329] | 18%
546306 (antisense eT*eT*eT*eG*eG*dT*dG*dA*dA*dT*dA*dA*dT*dA*dA*eT*e[5mC]*eT*e[5mC]*eT) [compound 546306] | 65%

Same assay, conditions: Table 10 experiment; HepaRG cells, 20,000 cells per well, electroporation with 5,000 nM antisense oligonucleotide, approx. 24 hours; PKK mRNA by RT-PCR (RTS3454), relative to untreated control cells

Substance | % inhibition
547461 (antisense eG*eT*eA*eA*eT*dT*d[5mC]*dA*dA*dA*dG*dG*dA*dG*d[5mC]*e[5mC]*eT*eG*eG*eA) [compound 547461] | 55%
546329 (antisense e[5mC]*e[5mC]*eT*eT*e[5mC]*dG*dA*dG*dA*dA*dG*d[5mC]*d[5mC]*d[5mC]*d[5mC]*eA*eT*e[5mC]*e[5mC]*eG) [compound 546329] | 8%
546306 (antisense eT*eT*eT*eG*eG*dT*dG*dA*dA*dT*dA*dA*dT*dA*dA*eT*e[5mC]*eT*e[5mC]*eT) [compound 546306] | 71%

Same assay, conditions: Table 13; human PKK mRNA in HepaRG cells; 5-10-5 gapmers

Substance | % inhibition
547573 (eT*eA*eA*eG*e[5mC]*dA*dA*dG*dG*d[5mC]*d[5mC]*dT*dA*dT*dG*eT*eG*eT*eG*eG; antisense) [compound 547573] | 2%
547567 (eT*e[5mC]*e[5mC]*eA*e[5mC]*dT*d[5mC]*d[5mC]*dT*dA*dA*dG*dA*dA*dG*eT*eA*eT*eG*eG; antisense) [compound 547567] | 60%
547578 (eG*eT*e[5mC]*e[5mC]*eT*dA*dT*dA*dA*d[5mC]*dT*d[5mC]*dT*dA*dA*e[5mC]*eA*eG*eT*eA; antisense) [compound 547578] | 30%
547563 (eG*eT*eG*eG*eG*dA*dT*d[5mC]*dA*dG*dA*dG*dA*dA*dT*eG*eA*e[5mC]*eT*eA; antisense) [compound 547563] | 48%

Same assay, conditions: human PKK mRNA in HepaRG cells; 5-10-5 gapmers; Table 14

Substance | % inhibition
546857 (eT*eA*eT*eA*eA*d[5mC]*dT*dA*dT*dA*dA*d[5mC]*dA*dG*dT*eA*eT*e[5mC]*eA*e[5mC]; antisense) [compound 546857] | 7%

Same assay, conditions: human PKK mRNA, HepaRG cells, 5,000 nM antisense oligonucleotide, Table 18

Substance | % inhibition
548747 (antisense eT*eA*e[5mC]*eT*dA*dG*dT*dT*dT*d[5mC]*d[5mC]*dT*dA*dT*eA*eA*e[5mC]*eT) [compound 548747] | 2%
548733 (DNA e[5mC]*eA*e[5mC]*eT*dG*dT*dA*d[5mC]*dT*dA*dG*dT*dT*dT*e[5mC]*e[5mC]*eT; antisense) [compound 548733] | 84%

Same assay, conditions: human PKK mRNA, HepaRG cells; 5-10-5 motif oligonucleotides targeting SEQ ID NO: 1 and 10

Substance | % inhibition
547648 (e[5mC]*e[5mC]*eT*eA*eT*dA*dA*d[5mC]*dA*dG*dT*dA*dT*d[5mC]*dA*e[5mC]*eT*eG*eT*eA; antisense) [compound 547648] | 83%
546904 (eT*e[5mC]*e[5mC]*eT*eA*dT*dA*dT*d[5mC]*dA*d[5mC]*dT*dG*dT*dA*e[5mC]*e[5mC]*eT*eA*eT; antisense) [compound 546904] | 80%
547667 (eT*eA*eT*e[5mC]*eA*d[5mC]*dT*dG*dT*dA*d[5mC]*d[5mC]*dT*dA*dT*eA*eA*e[5mC]*eT*eA; antisense) [compound 547667] | 55%
546888 (eT*e[5mC]*e[5mC]*eT*eA*dT*dG*dT*d[5mC]*dA*d[5mC]*dT*dG*dT*dA*e[5mC]*e[5mC]*eT*eA*eT; antisense) [compound 546888] | 78%
547666 (eA*eT*e[5mC]*eA*e[5mC]*dT*dG*dT*dA*d[5mC]*d[5mC]*dT*dA*dT*dA*eA*e[5mC]*eT*eA*eT; antisense) [compound 547666] | 71%
546893 (e[5mC]*eA*e[5mC]*eT*eG*dT*d[5mC]*d[5mC]*dT*dA*dT*dG*dT*d[5mC]*dA*e[5mC]*eT*eG*eT*eA; antisense) [compound 546893] | 70%

— patent US11840686B2, “Modulation of prekallikrein (PKK) expression” (Ionis Pharmaceuticals, Inc., priority 2013, dated 2023)
